Measured values as given in PubChem BioAssay AID179 (DTP/NCI, 2004).
Activity calls are given as the source filed them.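 How the source made its calls: active means compounds giving half or more protection of infected cells from virus-caused growth loss, again on retest; inactive means the rest.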 Where a SMILES comes first, the peptide text is derived from it. [ ]: non-standard residue; d: D form. The star is where a group is joined. ξ: configuration not given here. Boc = CC(C)(C)OC(=O)*; OBn = c1ccc(CO*)cc1; ξP = O=C(O)C1CCCN1

System: CEM cells HIV-1 protection, formazan growth assay
Assay: NCI AIDS Antiviral Assay
Details: for IC50: measured here: growth of uninfected CEM cells
Summary of the method: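 Protection of CEM cells against HIV-1 was scored from cell growth (soluble formazan) across five concentrations, with parallel uninfected cells. Lack of protection may reflect toxicity.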

Row | SMILES | EC50 [µM] | IC50 [µM] | outcome
1 | O=C1OC2(c3ccccc31)c1ccccc1-c1ccccc12 | > 66.1 | > 66.1 | 
2 | O=S(=O)(O)CCCCS(=O)(=O)O | > 200 | > 200 | 
3 | O=C(c1ccccc1)C(c1ccccc1)C1(O)C(=O)Nc2ccc([N+](=O)[O-])cc21 (stereo not drawn) | > 25.7 | > 25.7 | 
4 | O=c1[nH]nc(Cc2ccc(Cl)cc2)n1CCO | > 200 | > 200 | 
5 | CC(C)CC(N)C(=O)NC(Cc1cnc[nH]1)C(=O)NC(CC(N)=O)C(=O)NC(C(=O)NC(CO)C(=O)NC(Cc1ccc(O)cc1)C(=O)NC(CO)C(=O)NC(C)C(=O)NC(CCCCN)C(=O)NC(CC(=O)O)C(=O)NC(CC(C)C)C(=O)O)C(C)O (stereo not drawn) (H-LHNTSYSAKDL-OH; configuration not given here) | > 50.1 | > 50.1 | 
6 | CC(C)(C)OC(=O)N[C@@H](Cc1ccccc1)C(=O)N1CCCC1C(=O)OCc1ccccc1 (stereo partly drawn) (Boc-Phe-[ξP]-OBn) | > 41.7 | > 41.7 | 
7 | CC1OC(=O)C2=C1C(=O)CC(C)(C)O2 (stereo not drawn) | > 182 | 170 | 
8 | CCOC(=O)C1C2CCC1CC(=NNc1ccc([N+](=O)[O-])cc1[N+](=O)[O-])C2 (stereo not drawn) | > 50.1 | 19.5 | 
9 | Cn1c2c(c(=O)[nH]c1=O)OCN(Cc1ccccc1)C2 | > 251 | 29.5 | 
10 | Cc1cc(Cl)ccc1NC(=O)CC1SC(N)=NC1=O (stereo not drawn) | > 832 | > 832 | 
11 | C[C@H](c1ccccc1)N1C(=O)[C@@H](OCc2ccccc2)[C@H]1[C@H](COC(=O)COCc1ccccc1)OCc1ccccc1 | > 200 | > 200 | 
12 | COc1ccc(Br)c(CCCCC(=O)O)c1 |  |  | inactive
13 | CC1=CC(=O)c2c(O)cccc2C1=O | > 2 | 0.912 | 
14 | CN(C)c1ccc(N2C(=S)SC(=Nc3ccccc3)C2=Nc2ccccc2)cc1 | > 200 | > 200 | 
15 | CC(C)=CCNc1ncnc2c1ncn2CCC(=O)O | > 200 | > 200 | 
16 | CC1(C)C2CC(=O)C1(C)C(O)C2Br (stereo not drawn) |  |  | inactive
17 | CCC1CC(C)=CCN1S(=O)(=O)c1ccc(C)cc1 (stereo not drawn) | > 18.6 | > 18.6 | 
18 | OC(C1CCCC1=N/N=C1/CCCC1C(O)(C(F)(F)Cl)C(F)(F)Cl)(C(F)(F)Cl)C(F)(F)Cl (stereo not drawn) | > 50.1 | > 50.1 | 
19 | CC(C)[C@@H]1CC[C@@H](C)C[C@H]1OC(=O)/C=C1/C2C=CC(O2)C1C(=O)O[C@@H]1C[C@H](C)CC[C@H]1C(C)C (stereo partly drawn) | > 200 | > 200 | 
20 | O=C1CCCCc2scc(C(=O)O)c2N1 | > 1120 | > 1120 | 
21 | COc1ccc(/C(Cl)=C(\C=O)c2ccccc2)cc1OC |  |  | inactive
22 | O=C1Nc2ccc(cc2)Cc2ccc(cc2)NC(=O)N2CCN(CC2)C(=O)Nc2ccc(cc2)Cc2ccc(cc2)NC(=O)N2CCN1CC2 | > 10.7 | > 10.7 | 
23 | COc1ccc(NC(=O)C(=O)C2CNC(=O)NC2=O)c(OC)c1 (stereo not drawn) | > 209 | > 209 | 

Row | SMILES | EC50 [µM] | IC50 [µM] | outcome
24 | O=c1[nH]c2nc3ccccc3c(=O)n2nc1Cc1ccccc1 | > 44.7 | > 44.7 | 
25 | COC[C@@H](N=CN1CCc2cc(OC)c(OC)cc2C1)C(C)(C)C | > 741 | > 741 | 
26 | CN1CNC2C(=O)CCC2c2ccccc21 (stereo not drawn) | > 1150 | 676 | 
27 | O=C(O)CCC(=O)NCCNC(=O)CCC(=O)O | > 955 | > 955 | 
28 | COc1nc2c(c(O)c(C)c(=O)n2OC2OCC(OC(C)=O)C(OC(C)=O)C2OC(C)=O)c(=O)n1C (stereo not drawn) | > 132 | > 132 | 
29 | COc1ccc(C2S/C(=C\c3ccc([N+](=O)[O-])cc3)C(=O)N2NC(=O)Cc2ccccc2)cc1 (stereo not drawn) | > 55 | > 55 | 
30 | CCOC(=O)C1C2CCC(O2)C1C(=O)O (stereo not drawn) | > 200 | 21.4 | 
31 | COc1cc(C2C(Cl)C(=O)N2NC(=O)c2ccccc2O)cc(OC)c1OC (stereo not drawn) | > 45.7 | 3.98 | 
32 | CC1=NOC(=O)/C1=C/c1ccccc1O | > 178 | > 178 | 
33 | Cc1nc2ccc(NC(=S)Nc3ccccc3)cc2c(=O)n1-c1ccccc1 | > 200 | > 200 | 
34 | O=C1C(SCCO)=C(SCCO)C(=O)c2[nH]cnc21 | > 437 | 42.7 | 
35 | COc1cc(N(CCC#N)CCC#N)ccc1/C(N=Nc1ccc([N+](=O)[O-])cc1)=N/NC(=O)c1cc(Br)ccc1O | > 200 | 33.1 | 
36 | COc1cccc(C(=O)N[C@@H]2[C@H](O)[C@@H](CO)O[C@H]2n2cnc3c(N)ncnc32)c1 | > 200 | > 200 | 
37 | O=c1[nH]nc(Cn2c3ccc(Br)cc3c3nc4ccccc4nc32)n1C1CCCCC1 | > 200 | 174 | 
38 | CN1CCCC(=O)C1CC[C@H]1C(=O)CCCN1C (stereo partly drawn) | > 269 | > 269 | 
39 | COC(=O)C1(C(=O)OC)CC(=O)c2c(OC(=O)c3cccc(OC)c3C#N)ccc(OC(=O)c3cccc(OC)c3C#N)c2C1 | > 200 | 29.5 | 
40 | CC12CCC(O)CC1=CCC1C2CCC2(C)C1CC1=CC(C#N)C(=O)NC12O (stereo not drawn) | > 49 | 28.8 | 
41 | CC(C#N)N(CCc1ccccc1)C(=O)c1ccccc1 (stereo not drawn) | > 200 | > 200 | 
42 | O=c1c(SCc2ccc(Cl)cc2)c(SCc2ccc(Cl)cc2)cnn1-c1ccccc1 | > 14.8 | 3.98 | 
43 | Cc1ccc2nc(-c3ccc(N=NNc4ccc(-c5nc6ccc(C)c(S(=O)(=O)O)c6s5)cc4)cc3)sc2c1S(=O)(=O)O | 174 | > 200 | 
44 | O=C1NS(=O)(=O)c2ccccc21 | > 1200 | > 1200 | 
45 | CSc1nc2[nH]c(=O)n(OS(=O)(=O)c3ccccc3)c(=O)c2n1C | > 200 | 115 | 
46 | CN1C/C(=C\c2ccc(Cl)cc2)C(=O)/C(=C/c2ccc(Cl)cc2)C1 | > 200 | 0.417 | 

Row | SMILES | EC50 [µM] | IC50 [µM] | outcome
47 | CCOc1cc2c(cc1O)C(=O)C[C@@H]1[C@@H]2CC[C@]2(C)[C@@H](O)CC[C@@H]12 | > 2 | 0.0794 | 
48 | N#Cc1c(-c2ccc(Cl)cc2)c(C#N)c(=O)n(NS(=O)(=O)c2ccccc2)c1O | > 200 | > 200 | 
49 | COc1c2c(cc3ccc(=O)oc13)C(Cl)C(Cl)O2 (stereo not drawn) | > 77.6 | 21.9 | 
50 | Cc1cc(/C=C\c2ccnc3ccccc23)ccc1N(C)C |  |  | inactive
51 | O=C1NC(=O)C(c2ccccc2)(c2ccccc2)N1 | > 372 | > 372 | 
52 | CC12CCC(=O)N1c1cnccc1N2 (stereo not drawn) | > 200 | > 200 | 
53 | COc1nc(NC2OCC(OC(C)=O)C(OC(C)=O)C2OC(C)=O)c(C(=O)CCl)c(=O)n1C (stereo not drawn) |  |  | inactive
54 | O=Cc1cc(O)ccc1Br | > 200 | 2.95 | 
55 | COc1cc2c(cc1OC)C(=O)/C(=C/c1ccccc1)CC2 | > 200 | 117 | 
56 | CCC(C)(C)C1CCC2c3c([nH]c4ccccc34)C3C(=O)N(c4ccc(OC)cc4)C(=O)C3C2C1 (stereo not drawn) | > 200 | 7.76 | 
57 | COC1OCC(SC(=O)c2ccccc2)C(O)C1O (stereo not drawn) | > 200 | 141 | 
58 | CCCC[n+]1cc(C(N)=O)cc2ccccc21 | 0.0692 | 219 | 
59 | Nc1nc2cc(Cl)ccc2n1N | > 200 | > 200 | 
60 | COc1ccc(C2CC(=O)CC(c3ccc(OC)cc3)C23C(=O)NC(=S)NC3=O)cc1 (stereo not drawn) | > 100 | > 100 | 
61 | Cc1nc2ccc(Cl)cc2c2c1CCN2c1ccc(F)cc1 | > 200 | 11.5 | 
62 | COc1ccc(-n2cnc3c(NC(Cc4ccccc4)C(=O)O)ncnc32)cc1 (stereo not drawn) | > 200 | 2 | 
63 | O=c1[nH]c2cc([N+](=O)[O-])ccc2nc1/C(=N\Nc1ccccc1)C(O)c1ccc2c(c1)OCO2 (stereo not drawn) | > 447 | 214 | 
64 | c1ccc2c(c1)Cc1c(Cc3csc4ccccc34)ccc3cccc-2c13 | > 7.24 | > 7.24 | 
65 | O=C1/C(=C/c2ccc(Cl)cc2)COc2ccc(Br)cc21 | > 14.8 | > 14.8 | 
66 | Cc1n[nH]c2ccc([N+](=O)[O-])cc2c1=O | > 57.5 | > 57.5 | 
67 | COc1ccc(C(c2ccc(C(C)C)cc(OC)c2=O)c2ccc(C(C)C)cc(OC)c2=O)cc1 |  |  | inactive
68 | O=C1C2C3CCC(O3)C2C(=O)N1N1C(=O)C2C3CCC(O3)C2C1=O (stereo not drawn) | > 200 | 43.7 | 
69 | O=[N+]([O-])c1ccc(Sc2ccc([N+](=O)[O-])cc2)cc1 |  |  | inactive

Row | SMILES | EC50 [µM] | IC50 [µM] | outcome
70 | CC1(C)C2CC1C(/C=N\OCC(=O)O)=CC2=O (stereo not drawn) | > 200 | > 200 | 
71 | O=C1CCCC1CC(CN1CCOCC1)Sc1nnnn1-c1ccccc1 (stereo not drawn) | > 200 | > 200 | 
72 | CC1CCCC(C)C(Sc2ccccc2)=C1Sc1ccccc1 (stereo not drawn) |  |  | inactive
73 | C=Cc1cc[n+](CCCCCC[n+]2ccc(C=C)cc2)cc1 | > 200 | > 200 | 
74 | [Cl-].[Co+2].c1cnc2c(c1)ccc1cccnc12.c1cnc2c(c1)ccc1cccnc12.c1cnc2c(c1)ccc1cccnc12 | > 100 | 0.977 | 
75 | CC(C)N(O)C(=N)c1ccccc1 |  |  | inactive
76 | CCCCS(=O)(=O)CCC(N)P(=O)(O)O (stereo not drawn) | > 200 | > 200 | 
77 | CC1(c2ccccc2)Oc2ccccc2-n2cccc2C1=O (stereo not drawn) | 2.4 | 12.9 | 
78 | CC(=O)Nc1ccc(/C=C(\C#N)c2ccc(C)cc2)cc1 | > 200 | > 200 | 
79 | CCCC(=O)C(C)=C(OC)OC |  |  | inactive
80 | Cc1cc2c(c(C)c1O)C(C)(C)CN2C(=O)C(C)(C)C | > 200 | 74.1 | 
81 | O=C1NN=C2CCCCCC12 (stereo not drawn) | > 589 | > 589 | 
82 | CC1=CCC(Br)C(C)(C)C12CCC(C)(Cl)C(Br)C2 (stereo not drawn) | > 200 | 29.5 | 
83 | NC1CCC[C@@H](O)[C@H]1O (stereo partly drawn) | > 200 | > 200 | 
84 | Nc1c2c([nH]c(=O)c1N=O)CCC2 | > 200 | > 200 | 
85 | N#CC(C#N)=Cc1ccc(Cl)cc1 | > 72.4 | 66.1 | 
86 | CCCCCCC(C)S(=O)(=O)O (stereo not drawn) | > 200 | > 200 | 
87 | O=C(OCCN1CCCC1)c1cc2ccccc2n1Cc1ccccc1 | > 200 | 36.3 | 
88 | O=C(/C=C/c1ccc(Cl)c(Cl)c1)c1ccccc1Cl | > 2.4 | > 2.4 | 
89 | Cc1ccc(C)c(NC(=O)CC/C(=N\NC(=O)C(N)=O)C(C)C(=O)c2ccc(O)cc2)c1 (stereo not drawn) | > 155 | > 155 | 
